Results: article PMC11538350, “Synthetic studies on the tetrasubstituted D-ring of cystobactamids lead to potent terephthalic acid antibiotics” (Communications Chemistry, 2024)
≈ marks a conversion by molar mass, not a printed value.

Legend:
[1] = metabolic stability assay, mouse microsomes; conditions: Table S4
[2] = metabolic stability assay, human microsomes; conditions: second microsome column of Table S4, head prints (M); mouse and human microsomes
E. ae. CIP 106754 = experiment: MIC assay; format: cell-based, Enterobacter aerogenes; conditions: Klebsiella aerogenes, CIP106754, read-out: MIC E. ae. CIP 106754
Procedure: (§1) All cystobactamids were evaluated in MIC-assays on a panel of representative ESKAPE strains with focus on A. baumannii (Tables 1 and 2). Compared to our previous work[10],[17],[18], we specifically included more challenging test strains with known resistances against gyrase inhibitors.
(§2) 2.1 Materials and Methods
(§3) Strains were cultivated according to standard procedures. Bacterial cryo-cultures were
(§4) resuspended into fresh MHBII (cation adjusted) medium. The resuspension
(§5) assay plate (Corning, #3788).
(§6) in parallel as a positive control. […]

K. pneum. KP10581 = experiment: MIC assay; format: cell-based; conditions: Klebsiella pneumoniae; read-out: MIC K. pneum. KP10581
Procedure: as §1, §2, §3, §4, §5, §6

A. baum. CIP-107292 = experiment: MIC assay; format: cell-based; conditions: Acinetobacter baumannii, CIP107292; read-out: MIC A. baum. CIP-107292
Procedure: as §1, §2, §3, §4, §5, §6

A. baum. CIP-105742 = experiment: MIC assay; format: cell-based; conditions: Acinetobacter baumannii, CIP105742; read-out: MIC A. baum. CIP-105742
Procedure: as §1, §2, §3, §4, §5, §6

E. cloacae ATCC BAA-2468 = experiment: MIC assay; format: cell-based; conditions: Enterobacter cloacae, ATCCBAA2468; read-out: MIC E. cloacae ATCC BAA-2468
Procedure: as §1, §2, §3, §4, §5, §6

A. baum. R835 = experiment: MIC assay; format: cell-based; conditions: Acinetobacter baumannii; read-out: MIC A. baum. R835
Procedure: as §1, §2, §3, §4, §5, §6

[3] = system: S. pneum. DSM-11865 (PRSP); experiment: MIC assay; format: cell-based; conditions: Streptococcus pneumoniae; read-out: MIC S. pneum. DSM-11865 (PRSP)
Procedure: as §1, §2, §3, §4, §5, §6

P. ae. PA14ΔmexAB = experiment: MIC assay; format: cell-based; conditions: Pseudomonas aeruginosa, read-out: MIC P. ae. PA14ΔmexAB
Procedure: as §1, §2, §3, §4, §5, §6

A. baum. ATCC BAA-1710 = experiment: MIC assay; format: cell-based; conditions: Acinetobacter baumannii, ATCCBAA1710; read-out: MIC A. baum. ATCC BAA-1710
Procedure: as §1, §2, §3, §4, §5, §6

A. baum. DSM-30008 = experiment: MIC assay; format: cell-based; conditions: Acinetobacter baumannii, DSM30008; reference strain; read-out: MIC A. baum. DSM-30008
Procedure: as §1, §2, §3, §4, §5, §6

E. coli LM705 = experiment: MIC assay; format: cell-based; conditions: Escherichia coli, LM705, read-out: MIC E. coli LM705
Procedure: as §1, §2, §3, §4, §5, §6

K. pneum. R-1525 = experiment: MIC assay; format: cell-based; conditions: Klebsiella pneumoniae; read-out: MIC K. pneum. R-1525
Procedure: as §1, §2, §3, §4, §5, §6

P. ae. PA14 = experiment: MIC assay; format: cell-based; conditions: Pseudomonas aeruginosa, PA14; reference strain; read-out: MIC P. ae. PA14
Procedure: as §1, §2, §3, §4, §5, §6

S. aur. ATCC-29213 = experiment: MIC assay; format: cell-based; conditions: Staphylococcus aureus, ATCC29213; reference strain; read-out: MIC S. aur. ATCC-29213
Procedure: as §1, §2, §3, §4, §5, §6

E. coli ATCC-25922 = experiment: MIC assay; format: cell-based; conditions: Escherichia coli, ATCC25922; reference strain; read-out: MIC E. coli ATCC-25922
Procedure: as §1, §2, §3, §4, §5, §6

K. pneum. CIP-104298 = experiment: MIC assay; format: cell-based; conditions: Klebsiella pneumoniae, CIP104298; reference strain; read-out: MIC K. pneum. CIP-104298
Procedure: as §1, §2, §3, §4, §5, §6

[4] = for T1/2 PLASMA (H): human plasma; for T1/2 PLASMA (M): mouse plasma
Procedure: 2.1 Materials and Methods […]
Determination of in vitro ADME properties
7, 8, 11 and 42. All samples were analysed via HPLC -MS/MS.
HPLC-MS/MS analysis of cystobactamids
AB Sciex QTrap 6500plus mass spectrometer. LC conditions were as follows: column:
Samples were run under acidic
For plasma stability experiments, samples were procured from commercial sources.
Human plasma was obtained from Antibodies-online (catalog no. ABIN5706569), and mouse plasma was obtained from Tebubio (catalog no. D408-04-0050).
The methods were performed in accordance with relevant guidelines and regulations and approved by the Helmholtz Centre for Infection Research. […]

E. faec. DSM-17050 (VRE) = experiment: MIC assay; format: cell-based, Enterococcus faecium; conditions: Enterococcus; read-out: MIC E. faec. DSM-17050 (VRE)
Procedure: as §1, §2, §3, §4, §5, §6

ESKAPE strains = experiment: MIC-assays on a panel of representative ESKAPE strains, summary in words; format: cell-based; conditions: summary of the MIC tables
Procedure: as §1, §2, §3, §4, §5, §6

| SMILES | T1/2 MICROSOMES (M) [1] [min] | T1/2 MICROSOMES (M) [2] [min] | MIC (E. ae. CIP 106754) [µg/mL] | MIC (K. pneum. KP10581) [µg/mL] | MIC (A. baum. CIP-107292) [µg/mL] | MIC (A. baum. CIP-105742) [µg/mL] | MIC (E. cloacae ATCC BAA-2468) [µg/mL] | MIC (A. baum. R835) [µg/mL] | MIC [3] [µg/mL] | MIC (P. ae. PA14ΔmexAB) [µg/mL] | MIC (A. baum. ATCC BAA-1710) [µg/mL] | MIC (A. baum. DSM-30008) [µg/mL] | MIC (E. coli LM705) [µg/mL] | MIC (K. pneum. R-1525) [µg/mL] | MIC (P. ae. PA14) [µg/mL] | MIC (S. aur. ATCC-29213) [µg/mL] | MIC (E. coli ATCC-25922) [µg/mL] | MIC (K. pneum. CIP-104298) [µg/mL] | T1/2 PLASMA (H) [4] [min] | MIC (E. faec. DSM-17050 (VRE)) [µg/mL] | also measured |
| --- | --- | --- | --- | --- | --- | --- | --- | --- | --- | --- | --- | --- | --- | --- | --- | --- | --- | --- | --- | --- | --- |
| C#CC[C@H](NC(=O)c1ccc(NC(=O)c2ccc(C#N)cc2)cc1)C(=O)Nc1ccc(C(=O)Nc2ccc(C(=O)Nc3ccc(C(=O)O)cc3)c(F)c2OC(C)C)cc1 [Cmpd. 4] | > 60 | > 60 | > 64 | > 64 | > 8 | 0.25 to 0.5 (≈ 0.315 to 0.629 µM) | > 64 | > 8 | > 64 | > 64 | > 8 | 0.06 (≈ 0.0755 µM) | > 64 | > 64 | > 64 | > 64 | 4 (≈ 5.03 µM) | > 64 | > 240 | 4 (≈ 5.03 µM) | T1/2 PLASMA (M) [4]: > 240 min |
| C#CC[C@H](NC(=O)c1ccc(NC(=O)c2ccc(C#N)cc2)cc1)C(=O)Nc1ccc(C(=O)Nc2ccc(C(=O)Nc3ccc(C(=O)O)cc3)c(N)c2OC(C)C)cc1 [Cmpd. 7] | > 60 | > 60 | > 64 | > 64 | > 64 |  | > 64 | > 64 | 0.2 (≈ 0.253 µM) |  | > 64 |  | > 64 | > 64 |  | > 64 | 0.005 (≈ 0.00631 µM) |  | > 240 | > 64 | T1/2 PLASMA (M) [4]: > 240 min |
| C#CC[C@H](NC(=O)c1ccc(NC(=O)c2ccc(C#N)cc2)cc1)C(=O)Nc1ccc(C(=O)Nc2ccc(C(=O)Nc3ccc(C(=O)O)cc3)nc2OC(C)C)cc1 [Cmpd. 8] | > 60 | > 60 | > 64 | > 64 | 8 (≈ 10.3 µM) |  | > 64 | > 64 |  |  | > 64 |  | > 64 | > 64 |  | > 64 | ≤ 0.03 |  | > 240 | 0.25 (≈ 0.321 µM) | T1/2 PLASMA (M) [4]: > 240 min |
| CO[C@@H](C(N)=O)[C@H](NC(=O)c1ccc(NC(=O)c2ccc(C#N)cc2)cc1)C(=O)Nc1ccc(C(=O)Nc2ccc(C(=O)Nc3ccc(C(=O)O)cc3)c(C(F)F)c2OC(C)C)cc1 [Cmpd. 9] |  |  | > 64 | > 64 | > 8 | > 8 | > 64 | > 8 | > 64 | > 64 | > 8 | > 8 | > 64 | > 64 | > 64 | > 64 | > 8 | > 64 |  | > 64 | antibacterial activity on the pathogen panel, in words (ESKAPE strains): complete elimination of activity |
| C#CC[C@H](NC(=O)c1ccc(NC(=O)c2ccc(C#N)cc2)cc1)C(=O)Nc1ccc(C(=O)Nc2ccc(C(=O)Nc3ccc(C(=O)O)cc3)c(O)c2CC(C)C)cc1 [Cmpd. 11] | > 60 | > 60 | > 64 | 8 (≈ 10.1 µM) | > 64 | < 0.03 | > 64 | > 64 | > 64 | > 64 | 0.25 (≈ 0.316 µM) | 1 (≈ 1.26 µM) | > 64 | > 64 | > 64 | 16 to 32 (≈ 20.2 to 40.5 µM) | < 0.03 | > 64 | > 240 | < 0.03 | T1/2 PLASMA (M) [4]: > 240 min |
| C#CC[C@H](NC(=O)c1ccc(NC(=O)c2ccc(C#N)cc2)cc1)C(=O)Nc1ccc(C(=O)Nc2ccc(CNc3ccc(C(=O)O)cc3)c(O)c2OC(C)C)cc1 [Cmpd. 41] |  |  | > 64 | > 64 | > 8 | > 8 | > 64 | > 8 | > 64 | > 64 | 1 to 2 (≈ 1.28 to 2.57 µM) | > 8 | > 64 | > 64 | > 64 | 16 to 32 (≈ 20.5 to 41.1 µM) | > 64 | > 64 |  | 16 to 32 (≈ 20.5 to 41.1 µM) | antibacterial activity on the pathogen panel, in words (ESKAPE strains): inactive |
| C#CC[C@H](NC(=O)c1ccc(NC(=O)c2ccc(C#N)cc2)cc1)C(=O)Nc1ccc(C(=O)Nc2ccc(-c3cn(-c4ccc(C(=O)O)cc4)nn3)c(O)c2OC(C)C)cc1 [Cmpd. 43] |  |  | > 64 | > 64 | > 8 | > 8 | > 64 | > 8 | > 64 | > 64 | > 8 | > 8 | > 64 | > 64 | > 64 | > 64 | > 64 | > 64 |  | > 64 | antibacterial activity on the pathogen panel, in words (ESKAPE strains): inactive |
| C#CC[C@H](NC(=O)c1ccc(NC(=O)c2ccc(C#N)cc2)cc1)C(=O)Nc1ccc(C(=O)Nc2ccc(-c3ccc(C(=O)O)cc3)c(O)c2OC(C)C)cc1 [Cmpd. 44] |  |  | > 64 | > 64 | > 64 | > 64 | > 64 | > 64 | > 64 | > 64 | > 64 | > 64 | > 64 | > 64 | > 64 | > 64 | > 64 | > 64 |  | < 0.03 | antibacterial activity on the pathogen panel, in words (ESKAPE strains): inactive |
